In US8680159B2, “Bradykinin 1 receptor modulating compounds” (Gruenenthal GmbH, priority 2010, dated 2014):

What follows are compounds tested against T1, B1R receptor of the rat (CHO K1 cells stably transfected with the B1R gene of the rat) (Rattus norvegicus, UniProt P97583) (assay: Functional study on the bradykinin receptor 1 (B1R), Ca2+ fluorescence (Fluo-4) FLIPR/Novostar assay, rB1R cells). Conditions: CHO-K1, 10 μM, read-out: % Inhibition (r-B1R) at 10 μM.
T1 construct: expressed in transfected cells; host or cells: CHO K1 cells (Chinese hamster ovary), stably transfected
T1 sequence (P97583 1-337): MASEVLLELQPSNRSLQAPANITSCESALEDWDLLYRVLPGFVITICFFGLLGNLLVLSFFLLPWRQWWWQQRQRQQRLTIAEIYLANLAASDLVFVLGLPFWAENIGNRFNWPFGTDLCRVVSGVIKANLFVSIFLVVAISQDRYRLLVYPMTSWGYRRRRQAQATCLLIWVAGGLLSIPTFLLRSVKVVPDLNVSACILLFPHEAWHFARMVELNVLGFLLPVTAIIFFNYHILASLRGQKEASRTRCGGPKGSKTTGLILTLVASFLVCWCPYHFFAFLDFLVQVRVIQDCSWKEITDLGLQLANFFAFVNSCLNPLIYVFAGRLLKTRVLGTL
Format: cell-based
In short: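 Stably transfected CHO K1 cells carrying human or rat B1R were Fluo-4 loaded and Ca2+ fluorescence read by FLIPR or Novostar. Compounds were added first at 10 μM for % activation, then the EC80 agonist was applied after 6-20 min (human: Lys-Des-Arg9-bradykinin; rat: Des-Arg9-bradykinin). % inhibition is relative to maximum achievable inhibition, and IC50 comes from concentration series.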

| inhibition at 10 µM | SMILES |
| --- | --- |
| 107% | Cc1cc(N2CCC(N(C)C(=O)c3ccc4c(c3)C(N(C)C(=O)Nc3ccc(Cl)cc3Cl)CC4)CC2)cc(C)n1 (stereo not shown) [CC_H-342, 3-[[(2,4-Dichlorophenyl)-carbamoyl]-methyl-amino]-N-[1-(2,6-dimethyl-pyridin-4-yl)-piperidin-4-yl]-N-methyl-2,3-dihydro-1H-indene-5-carboxylic acid amide] |
| 67% | Cc1cc(N2CCC(N(C)C(=O)c3ccc4c(c3)C(N(C)C(=O)Nc3cc(C(F)(F)F)ccc3Cl)CC4)CC2)cc(C)n1 (stereo not shown) [CC_H-343, 3-[[[2-Chloro-5-(trifluoromethyl)-phenyl]-carbamoyl]-methyl-amino]-N-[1-(2,6-dimethyl-pyridin-4-yl)-piperidin-4-yl]-N-methyl-2,3-dihydro-1H-indene-5-carboxylic acid amide] |
| 90% | Cc1cc(N2CCC(N(C)C(=O)c3ccc4c(c3)C(N(C)C(=O)Nc3ccc(Cl)cc3C(F)(F)F)CC4)CC2)cc(C)n1 (stereo not shown) [CC_H-344, 3-[[[4-Chloro-2-(trifluoromethyl)-phenyl]-carbamoyl]-methyl-amino]-N-[1-(2,6-dimethyl-pyridin-4-yl)-piperidin-4-yl]-N-methyl-2,3-dihydro-1H-indene-5-carboxylic acid amide] |
| 70% | Cc1cc(N2CCC(N(C)C(=O)c3ccc4c(c3)C(N(C)C(=O)Nc3ccc(F)c(Cl)c3)CC4)CC2)cc(C)n1 (stereo not shown) [CC_H-346, 3-[[(3-Chloro-4-fluoro-phenyl)-carbamoyl]-methyl-amino]-N-[1-(2,6-dimethyl-pyridin-4-yl)-piperidin-4-yl]-N-methyl-2,3-dihydro-1H-indene-5-carboxylic acid amide] |
| 57% | Cc1ccc(NC(=O)N(C)C2CCc3ccc(C(=O)N(C)C4CCN(c5cc(C)nc(C)c5)CC4)cc32)c(C)c1 (stereo not shown) [CC_H-347, 3-[[(2,4-Dimethyl-phenyl)-carbamoyl]-methyl-amino]-N-[1-(2,6-dimethyl-pyridin-4-yl)-piperidin-4-yl]-N-methyl-2,3-dihydro-1H-indene-5-carboxylic acid amide] |
| 80% | Cc1cc(N2CCC(N(C)C(=O)c3ccc4c(c3)C(N(C)C(=O)N(C)c3ccccc3Cl)CC4)CC2)cc(C)n1 (stereo not shown) [CC_H-349, 3-[[(2-Chlorophenyl)-methyl-carbamoyl]-methyl-amino]-N-[1-(2,6-dimethyl-pyridin-4-yl)-piperidin-4-yl]-N-methyl-2,3-dihydro-1H-indene-5-carboxylic acid amide] |
| 108% | Cc1cc(N2CCC(N(C)C(=O)c3ccc4c(c3)C(N(C)C(=O)N(C)c3ccc(Cl)cc3Cl)CC4)CC2)cc(C)n1 (stereo not shown) [CC_H-350, 3[[(2,4-Dichlorophenyl)-methyl-carbamoyl]-methyl-amino]-N-[1-(2,6-dimethyl-pyridin-4-yl)-piperidin-4-yl]-N-methyl-2,3-dihydro-1H-indene-5-carboxylic acid amide] |
| 110% | Cc1cc(N2CCC(N(C)C(=O)c3ccc4c(c3)C(N(C)C(=O)CC(C)C)CC4)CC2)cc(C)n1 (stereo not shown) [CC_H-352, N-[1-(2,6-Dimethyl-pyridin-4-yl)-piperidin-4-yl]-N-methyl-3-[methyl-(3-methyl-butanoyl)-amino]-2,3-dihydro-1H-indene-5-carboxylic acid amide] |
| 84% | CCCC(=O)N(C)C1CCc2ccc(C(=O)N(C)C3CCN(c4cc(C)nc(C)c4)CC3)cc21 (stereo not shown) [CC_H-353, 3-(Butanoyl-methyl-amino)-N-[1-(2,6-dimethyl-pyridin-4-yl)-piperidin-4-yl]-N-methyl-2,3-dihydro-1H-indene-5-carboxylic acid amide] |
| 110% | Cc1cc(N2CCC(N(C)C(=O)c3ccc4c(c3)C(N(C)C(=O)CCC3CCCC3)CC4)CC2)cc(C)n1 (stereo not shown) [CC_H-354, 3-(3-Cyclopentyl-propanoyl-methyl-amino)-N-[1-(2,6-dimethyl-pyridin-4-yl)-piperidin-4-yl]-N-methyl-2,3-dihydro-1H-indene-5-carboxylic acid amide] |
| 96% | Cc1cc(N2CCC(N(C)C(=O)c3ccc4c(c3)C(N(C)S(=O)(=O)Cc3cccc(C(F)(F)F)c3)CC4)CC2)cc(C)n1 (stereo not shown) [CC_H-355, N-[1-(2,6-Dimethyl-pyridin-4-yl)-piperidin-4-yl]-N-methyl-3-[methyl-[[3-(trifluoromethyl)phenyl]-methylsulfonyl]-amino]-2,3-dihydro-1H-indene-5-carboxylic acid amide] |
| 109% | CN(C(=O)c1ccc2c(c1)C(NC(=O)c1cc(F)ccc1Cl)CC2)C1CCN(c2ccc3cnccc3c2)CC1 (stereo not shown) [CC_H-356, 3-[(2-Chloro-5-fluoro-benzoyl)amino]-N-(1-isoquinolin-6-yl-piperidin-4-yl)-N-methyl-2,3-dihydro-1H-indene-5-carboxylic acid amide] |
| 110% | CN(C(=O)c1ccc2c(c1)C(NC(=O)c1cc(C(F)(F)F)ccc1Cl)CC2)C1CCN(c2ccc3cnccc3c2)CC1 (stereo not shown) [CC_H-357, 3-[[2-Chloro-5-(trifluoromethyl)-benzoyl]amino]-N-(1-isoquinolin-6-yl-piperidin-4-yl)-N-methyl-2,3-dihydro-1H-indene-5-carboxylic acid amide] |
| 111% | Cc1ccc(F)c(C(=O)NC2CCc3ccc(C(=O)N(C)C4CCN(c5ccc6cnccc6c5)CC4)cc32)c1Cl (stereo not shown) [CC_H-358, 3-[(2-Chloro-6-fluoro-3-methyl-benzoyl)amino]-N-(1-isoquinolin-6-yl-piperidin-4-yl)-N-methyl-2,3-dihydro-1H-indene-5-carboxylic acid amide] |
| 110% | CN(C(=O)c1ccc2c(c1)C(NC(=O)c1cc(Cl)ccc1Cl)CC2)C1CCN(c2ccc3cnccc3c2)CC1 (stereo not shown) [CC_H-359, 3-[(2,5-Dichloro-benzoyl)amino]-N-(1-isoquinolin-6-yl-piperidin-4-yl)-N-methyl-2,3-dihydro-1H-indene-5-carboxylic acid amide] |
| 109% | CN(C(=O)c1ccc2c(c1)C(NC(=O)C1CCCCC1)CC2)C1CCN(c2ccc3cnccc3c2)CC1 (stereo not shown) [CC_H-360, 3-(Cyclohexanecarbonylamino)-N-(1-isoquinolin-6-yl-piperidin-4-yl)-N-methyl-2,3-dihydro-1H-indene-5-carboxylic acid amide] |
| 110% | CN(C(=O)c1ccc2c(c1)C(NC(=O)C1CC1)CC2)C1CCN(c2ccc3cnccc3c2)CC1 (stereo not shown) [CC_H-361, 3-(Cyclopropanecarbonylamino)-N-(1-isoquinolin-6-yl-piperidin-4-yl)-N-methyl-2,3-dihydro-1H-indene-5-carboxylic acid amide] |
| 110% | CN(C(=O)c1ccc2c(c1)C(NC(=O)CC(C)(C)C)CC2)C1CCN(c2ccc3cnccc3c2)CC1 (stereo not shown) [CC_H-362, 3-(3,3-Dimethyl-butanoylamino)-N-(1-isoquinolin-6-yl-piperidin-4-yl)-N-methyl-2,3-dihydro-1H-indene-5-carboxylic acid amide] |
| 89% | COCC(=O)NC1CCc2ccc(C(=O)N(C)C3CCN(c4ccc5cnccc5c4)CC3)cc21 (stereo not shown) [CC_H-363, N-(1-Isoquinolin-6-yl-piperidin-4-yl)-3-[(2-methoxy-acetyl)amino]-N-methyl-2,3-dihydro-1H-indene-5-carboxylic acid amide] |
| 111% | CN(C(=O)c1ccc2c(c1)C(NC(=O)c1cccc(C(F)(F)F)c1Cl)CC2)C1CCN(c2ccc3cnccc3c2)CC1 (stereo not shown) [CC_H-364, 3-[[2-Chloro-3-(trifluoromethyl)-benzoyl]amino]-N-(1-isoquinolin-6-yl-piperidin-4-yl)-N-methyl-2,3-dihydro-1H-indene-5-carboxylic acid amide] |
| 64% | CN(C(=O)c1ccc2c(c1)C(NC(=O)Nc1ccccc1Cl)CC2)C1CCN(c2ccc3cnccc3c2)CC1 (stereo not shown) [CC_H-365, 3-[[(2-Chlorophenyl)-carbamoyl]amino]-N-(1-isoquinolin-6-yl-piperidin-4-yl)-N-methyl-2,3-dihydro-1H-indene-5-carboxylic acid amide] |
| 92% | CN(C(=O)c1ccc2c(c1)C(NC(=O)Nc1c(Cl)cccc1Cl)CC2)C1CCN(c2ccc3cnccc3c2)CC1 (stereo not shown) [CC_H-366, 3-[[(2,6-Dichloro-phenyl)-carbamoyl]amino]-N-(1-isoquinolin-6-yl-piperidin-4-yl)-N-methyl-2,3-dihydro-1H-indene-5-carboxylic acid amide] |
| 91% | CN(C(=O)NC1CCc2ccc(C(=O)N(C)C3CCN(c4ccc5cnccc5c4)CC3)cc21)c1ccccc1Cl (stereo not shown) [CC_H-375, 3-[[(2-Chlorophenyl)-methyl-carbamoyl]amino]-N-(1-isoquinolin-6-yl-piperidin-4-yl)-N-methyl-2,3-dihydro-1H-indene-5-carboxylic acid amide] |
| 77% | CN(C(=O)NC1CCc2ccc(C(=O)N(C)C3CCN(c4ccc5cnccc5c4)CC3)cc21)c1ccc(Cl)cc1Cl (stereo not shown) [CC_H-376, 3-[[(2,4-Dichlorophenyl)-methyl-carbamoyl]amino]-N-(1-isoquinolin-6-yl-piperidin-4-yl)-N-methyl-2,3-dihydro-1H-indene-5-carboxylic acid amide] |
| 101% | CCCS(=O)(=O)NC1CCc2ccc(C(=O)N(C)C3CCN(c4ccc5cnccc5c4)CC3)cc21 (stereo not shown) [CC_H-378, N-(1-Isoquinolin-6-yl-piperidin-4-yl)-N-methyl-3-[(propylsulfonyl)amino]-2,3-dihydro-1H-indene-5-carboxylic acid amide] |
